From US9670162B2, “Mitochondrial aldehyde dehyrogenase-2 modulators and methods of use thereof” (The Board of Trustees of the Leland Stanford Junior …, priority 2013, dated 2017) come the findings set out here.

Where a chain is given by its changes, count along the chain named.

The target in assay [1] is T1, human ALDH2*2 recombinant mutant enzyme (E487K) (Homo sapiens, UniProt P05091, E504K).
T1 construct: His-tag (pTrcHis vector) (N); made in house; host or cells: E. coli BL21
T1 sequence (P05091 18-517 E504K): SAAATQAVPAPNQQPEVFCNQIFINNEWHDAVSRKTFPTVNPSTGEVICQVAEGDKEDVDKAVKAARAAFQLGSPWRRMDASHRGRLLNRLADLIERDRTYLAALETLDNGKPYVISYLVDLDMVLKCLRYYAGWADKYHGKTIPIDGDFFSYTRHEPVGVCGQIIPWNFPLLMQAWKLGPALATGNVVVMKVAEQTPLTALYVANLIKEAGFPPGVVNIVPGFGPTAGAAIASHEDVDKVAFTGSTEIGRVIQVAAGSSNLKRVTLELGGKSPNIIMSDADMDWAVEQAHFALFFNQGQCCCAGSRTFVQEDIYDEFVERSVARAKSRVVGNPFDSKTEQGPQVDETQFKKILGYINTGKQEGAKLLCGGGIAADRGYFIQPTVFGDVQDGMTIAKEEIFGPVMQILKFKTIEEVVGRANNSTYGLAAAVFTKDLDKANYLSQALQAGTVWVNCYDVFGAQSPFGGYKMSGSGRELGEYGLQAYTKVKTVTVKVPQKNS
Put plainly: ALDH2 enzymatic assay (NADH at 340 nm), recombinant mutant enzyme. In kind it is biochemical. On the set-up: key: −: no activation or inhibition; +: activation less than control 1; ++: activation similar to control 1, within 10%; +++: activation more than control 1 and less than control (compound 161); ++++: activation similar to compound 161, within 10%. Particulars: activation relative to benchmarks control 1 and compound 161. The text has this: (§1) ALDH2 catalyzes the oxidative reaction of substrate acetaldehyde to acetic acid using NAD^+ as a cofactor. Enzymatic activity, or catalytic rate, of aldehyde dehydrogenase (ALDH2) can be measured spectrophotometrically at UV wavelength λ340 nm by the accumulation of reduced product NADH derived from NAD^+. […] This method is well-established in the literature [e.g. D. K. Rex, W. F. Bosron, J. E. Smialek, T. K. Li, Alcohol Clin Exp Res 9, 147 (1985)].
(§2) Full-length wild type human ALDH2 cDNA was purchased from ATCC (No. MGC-1806. GenBank ID: BC002967). The 18-amino acid mitochondria transport signal sequence was removed by PCR and cloned into the NheI/HindIII sites of a His-tag vector, pTrcHis, using standard molecular cloning techniques. The human ALDH2* cDNA construct containing the Asian E487K mutation was obtained by site-directed mutagenesis to create the E487K substitution of the wild type ALDH2. Both human clones were designed to express a recombinant protein with the His-tag at the N-terminus of the protein. For the co-expression experiments of human ALDH2 wild type and ALDH2*2 heterotetramers, a wild type ALDH2 gene and a ALDH2 E487K gene were inserted separately into the two multiple cloning sites of pETDuet-1 vector. (Novagen, Calif., USA). All the vectors were transformed into BL21 E. coli host cells and subjected to 0.5 mM IPTG induction for protein expression at 30° C. Purifications of the recombinant proteins by affinity nickel columns (HisTrap, GE Healthy Science, USA) were carried out using standard protocols according to manufacturer's instructions (Novagen, USA).
(§3) Control 1 and compound 161 are used as benchmarks and the symbols have the following representation: […]

Assay [2] concerns the target T2, human ALDH2 wild type (Homo sapiens, UniProt P05091).
T2 construct: His-tag (pTrcHis vector) (N); made in house; host or cells: E. coli BL21
T2 sequence (P05091 18-517): T1 sequence (P05091 18-517 E504K) with K487E
The experiment in a line: ALDH2 enzymatic assay (NADH at 340 nm), recombinant wild type enzyme. It counts as biochemical. The arrangement: key: −: no activation or inhibition; +: activation less than control 1; ++: activation similar to control 1, within 10%; +++: activation more than control 1 and less than control (compound 161); ++++: activation similar to compound 161, within 10%. As to conditions: activation relative to benchmarks control 1 and compound 161.
Excerpt: as §1, §2, §3

With `CCOc1nccc(Cl)c1C(=O)NCc1ccc(OC)c(F)c1` [Compound 193], the “ALDH2 (mutant)” value in assay [1] is listed as “++”. For the same molecule, the “ALDH2 (wild-type)” value in assay [2] was “++”.

As to `COc1ccc(CNC(=O)c2c(Cl)ccnc2S(=O)(=O)CC(C)C)cc1F` [Compound 224], in assay [1], the “ALDH2 (mutant)” value is recorded as “+”. Besides, in assay [2], the “ALDH2 (wild-type)” value is recorded as “+”.

Regarding `COCCOc1cccc(Cl)c1C(=O)NCc1ccc(OC)c(F)c1` [Compound 143], the “ALDH2 (mutant)” value in assay [1] was “++”. The “ALDH2 (wild-type)” value in assay [2] is given as “++”.

For the molecule `COc1cc(F)c(CNC(=O)c2c(Cl)ccnc2OCC(C)C)cc1F` [Compound 269], the “ALDH2 (mutant)” value in assay [1] was “++++”. For the same molecule, the “ALDH2 (wild-type)” value in assay [2] is on record as “++++”.

For `COc1ccc(CNC(=O)c2c(Cl)ccnc2Cl)c(F)c1F` [Compound 174], the “ALDH2 (mutant)” value in assay [1] is “++”. For the same molecule, the “ALDH2 (wild-type)” value in assay [2] is “+”.

As for `COc1ccc(CNC(=O)c2c(Cl)cccc2OC2CCCC2)cc1F` [Compound 146], in assay [1], the “ALDH2 (mutant)” value is given as “+++”. Besides, in assay [2], the “ALDH2 (wild-type)” value is “++”.

Regarding `O=C(NCc1ccc2occc2c1)c1c(Cl)ccnc1OCC1CC1` [Compound 257], the “ALDH2 (mutant)” value in assay [1] is reported as “+”. Moreover, in assay [2], the “ALDH2 (wild-type)” value is listed as “+”.

With `O=C(NCc1ccc(F)c(F)c1)c1c(Cl)cccc1OCC1CC1` [Compound 155], the “ALDH2 (mutant)” value in assay [1] is reported as “++”. The “ALDH2 (wild-type)” value in assay [2] was “+”.

Consider `COc1ccc(CNC(=O)c2cc(Br)ccc2C)cc1` [Compound 115], for which, in assay [1], the “ALDH2 (mutant)” value is recorded as “+”. Besides, the “ALDH2 (wild-type)” value in assay [2] is given as “+”.

With `COc1ccc(CNC(=O)c2c(Cl)cccc2Oc2ccc(C)cc2)cc1F` [Compound 132], in assay [1], the “ALDH2 (mutant)” value is given as “+”. Further, in assay [2], the “ALDH2 (wild-type)” value is “+”.

Take `COc1ccc(CNC(=O)c2c(Cl)cccc2Br)cc1` [Compound 108]: in assay [1], the “ALDH2 (mutant)” value was “+”. Besides, the “ALDH2 (wild-type)” value in assay [2] is “++”.

Consider `COc1ccc(CNC(=O)c2c(C)ccnc2OCC2CCC2)cc1F` [Compound 235], for which the “ALDH2 (mutant)” value in assay [1] is given as “+”. Moreover, the “ALDH2 (wild-type)” value in assay [2] is “+”.

On to `COc1ccc(CNC(=O)c2c(Cl)ccnc2OC)cc1F` [Compound 192], for which the “ALDH2 (mutant)” value in assay [1] was “+++”. Besides, in assay [2], the “ALDH2 (wild-type)” value is recorded as “+++”.

For `COc1ccc(CNC(=O)c2c(OC)ccnc2OCC2CC2)cc1F` [Compound 251], in assay [1], the “ALDH2 (mutant)” value was “+”. For the same molecule, the “ALDH2 (wild-type)” value in assay [2] is listed as “+”.

On to `COc1ccc(CNC(=O)c2c(Cl)cccc2OCC2CCC2)cc1F` [Compound 144], for which the “ALDH2 (mutant)” value in assay [1] is recorded as “+++”. In assay [2], the “ALDH2 (wild-type)” value is recorded as “+++”.

Take `CCC(CC)Oc1cccc(Cl)c1C(=O)NCc1ccc(OC)c(F)c1` [Compound 142]: the “ALDH2 (mutant)” value in assay [1] is “+++”. In addition, the “ALDH2 (wild-type)” value in assay [2] is “++”.

Turning to `O=C(O)c1ccc(CNC(=O)c2c(Cl)cccc2Br)cc1` [Compound 127], the “ALDH2 (mutant)” value in assay [1] was “+”. For the same molecule, the “ALDH2 (wild-type)” value in assay [2] is on record as “+”.

In the case of `COc1ccc(CNC(=O)c2c(Cl)cccc2Oc2ccccc2)cc1F` [Compound 110], the “ALDH2 (mutant)” value in assay [1] is given as “++”. Further, the “ALDH2 (wild-type)” value in assay [2] is “+”.

As for `O=C(NCc1ccc(O)c(F)c1)c1c(Cl)ccnc1OCC1CC1` [Compound 248], in assay [1], the “ALDH2 (mutant)” value is “−”. Besides, in assay [2], the “ALDH2 (wild-type)” value is on record as “−”.

Consider `CC(C)Oc1ccc(CNC(=O)c2c(Cl)ccnc2Cl)cc1F` [Compound 177], for which, in assay [1], the “ALDH2 (mutant)” value is recorded as “−”. The “ALDH2 (wild-type)” value in assay [2] is on record as “−”.

As for `COc1ccc(CNC(=O)c2c(Cl)ccnc2CCC(C)C)cc1F` [Compound 250], the “ALDH2 (mutant)” value in assay [1] is on record as “+”. Besides, the “ALDH2 (wild-type)” value in assay [2] is “+”.

Regarding `COc1c(F)cc(CNC(=O)c2c(Cl)ccnc2Cl)cc1F` [Compound 173], in assay [1], the “ALDH2 (mutant)” value is listed as “++”. Further, the “ALDH2 (wild-type)” value in assay [2] was “+”.

For `O=C(NCc1ccc(=O)[nH]c1)c1c(Cl)ccnc1OCC1CC1` [Compound 254], the “ALDH2 (mutant)” value in assay [1] is “+”. Further, the “ALDH2 (wild-type)” value in assay [2] is on record as “+”.

`C=CCOc1cccc(Cl)c1C(=O)NCc1ccc(OC)c(F)c1` [Compound 141]: the “ALDH2 (mutant)” value in assay [1] was “+++”. Also, in assay [2], the “ALDH2 (wild-type)” value is on record as “++”.

For `COc1ccc(CNC(=O)c2c(C)ccnc2OCC2CC2)cc1F` [Compound 231], the “ALDH2 (mutant)” value in assay [1] was “++”. In assay [2], the “ALDH2 (wild-type)” value is recorded as “+”.

For `CN(C)c1ccc(CNC(=O)c2c(Cl)cccc2Cl)cc1` [Compound 111], the “ALDH2 (mutant)” value in assay [1] is “−”. In addition, in assay [2], the “ALDH2 (wild-type)” value is recorded as “−”.

Consider `COc1ccc(CNC(=O)c2c(Cl)cncc2OCC(C)C)cc1F` [Compound 240], for which the “ALDH2 (mutant)” value in assay [1] is given as “++”. In addition, the “ALDH2 (wild-type)” value in assay [2] is on record as “+”.

`COc1ccc(CNC(=O)c2c(Cl)ccnc2OC2CCCC2)cc1F` [Compound 199]: in assay [1], the “ALDH2 (mutant)” value is given as “++”. The “ALDH2 (wild-type)” value in assay [2] is “++”.

Consider `COC(=O)c1cccc(Oc2cccc(Cl)c2C(=O)NCc2ccc(OC)c(F)c2)c1` [Compound 158], for which the “ALDH2 (mutant)” value in assay [1] is “+”. The “ALDH2 (wild-type)” value in assay [2] is recorded as “++”.

As to `COc1ccc(C(C)NC(=O)c2c(Cl)ccnc2OCC2CC2)cc1F` (stereo not shown) [Compound 249], the “ALDH2 (mutant)” value in assay [1] is “+”. The “ALDH2 (wild-type)” value in assay [2] is on record as “+”.

Take `O=C(NCc1ccc(F)c(F)c1)c1c(Cl)ccnc1OCC1CC1` [Compound 180]: the “ALDH2 (mutant)” value in assay [1] is listed as “+”. Further, the “ALDH2 (wild-type)” value in assay [2] was “+”.

Take `COc1ccc(CNC(=O)c2c(Cl)cccc2OC(C)C)cc1F` [Compound 140]: in assay [1], the “ALDH2 (mutant)” value is listed as “+++”. Also, the “ALDH2 (wild-type)” value in assay [2] was “+++”.

For the molecule `COc1ccc(CNC(=O)c2c(Cl)ccnc2OC2CC2)cc1F` [Compound 196], in assay [1], the “ALDH2 (mutant)” value is on record as “++”. Besides, in assay [2], the “ALDH2 (wild-type)” value is recorded as “++”.

With `COc1ccc(CNC(=O)c2c(Cl)cccc2OCCN(C)C)cc1F` [Compound 165], the “ALDH2 (mutant)” value in assay [1] was “++”. Also, in assay [2], the “ALDH2 (wild-type)” value is listed as “++”.

Regarding `CS(=O)(=O)c1ccc(CNC(=O)c2c(Cl)cccc2Cl)cc1` [Compound 112], the “ALDH2 (mutant)” value in assay [1] was “+”. The “ALDH2 (wild-type)” value in assay [2] is “+”.

With `CS(=O)(=O)c1ccc(CNc2cccc(Cl)c2C(=O)NCc2ccc3c(c2)OCO3)cc1` [Compound 118], the “ALDH2 (mutant)” value in assay [1] was “+”. Besides, in assay [2], the “ALDH2 (wild-type)” value was “+”.

For the molecule `O=C(NCc1ccc2ncsc2c1)c1c(Cl)ccnc1OCC1CC1` [Compound 264], the “ALDH2 (mutant)” value in assay [1] is on record as “−”. Besides, in assay [2], the “ALDH2 (wild-type)” value was “−”.

`COc1ccc(CNC(=O)c2c(Cl)ccnc2OCC2CCCC2)cc1F` [Compound 200]: the “ALDH2 (mutant)” value in assay [1] is on record as “++”. Also, the “ALDH2 (wild-type)” value in assay [2] is listed as “++”.

Consider `COc1ccc(CNC(=O)c2c(Cl)ccnc2S(=O)(=O)C(C)C)cc1F` [Compound 222], for which the “ALDH2 (mutant)” value in assay [1] was “+”. Moreover, the “ALDH2 (wild-type)” value in assay [2] is “+”.

Regarding `COc1ccc(CNC(=O)c2c(Cl)cccc2OCC2(C)CC2)cc1F` [Compound 151], the “ALDH2 (mutant)” value in assay [1] was “++++”. In assay [2], the “ALDH2 (wild-type)” value was “++++”.

Take `COc1ccc(CNC(=O)c2c(Cl)cccc2Cl)cc1F` [Compound 102]: in assay [1], the “ALDH2 (mutant)” value is on record as “++”. For the same molecule, the “ALDH2 (wild-type)” value in assay [2] is “++”.
